Test results as given in patent EP1206248B1, “CONTROLLED-RELEASE SEDATIVE-HYPNOTIC COMPOSITIONS AND METHODS RELATED THERETO” (Neurocrine Biosciences, Inc., priority 1999, dated 2001).
Converted amounts (≈) assume the structure as drawn.

Tests used:
[1] = Plasma half-life and pharmacokinetic parameters from plasma concentration-time profiles; type: in vivo; details: human
Excerpt: The mean plasma half-life of a sedative-hypnotic compound may be determined using well known techniques. Terminal half-life may be determined using standard pharmacokinetic calculations, such as those presented by Rolland and Tozer (Clinical Pharmacokinetics Concepts and Applications, 3rd. Ed., Chap. 3, 1995). In addition, software is commercially available which performs this calculation, such as the product sold under the tradename "WinNinlin™" (Prof. Ver.1.5). […]
To assess the plasma concentration time profiles, plasma concentration, Tmax and Tmin may be determined using well known techniques. […] Any suitable assay may be used to determine plasma levels, such as ELISA, RIA, or chromatography (e.g., gas-liquid chromatography or high pressure liquid chromatography) linked to any suitable detection system such as UV, fluorescence, mass spectrometry or an electrochemical system). […]
In this experiment, commercially available plasma profiling sofltware (GastroPlus™) (Simulations Plus Inc., CA) was used to simulate the effects of varying controlled release profiles and pharmacokinetic parameters based on in vivo plasma concentrations of NBI-34060 as measured in 12-healty male human subjects. […]

[2] = log D partition coefficient

With `CC(=O)N(C)c1cccc(-c2ccnc3c(C(=O)c4cccs4)cnn23)c1` [NBI-34060, N-methyl-N-(3-{3-[2-thienylcarbonyl]-pyrazolo-[1,5-a]-pyrimidin-7-yl}-phenyl)acetamide] the “resulting pH” value (Solubility in water; pH of the aqueous solution at approximately 20-30 µg/ml) was “approximately 8.0”, the solubility (Solubility in water; water, pH 8, water) was 20 to 30 µg/mL (≈ 53.1 to 79.7 µM) and the half-life ([1]; plasma half-life of NBI-34060) was 1.3 h. It also gave a Vd ([1]; male, one-compartment pharmacokinetic model, assuming 70 kg subject weight, read-out: volume of distribution (Vd)) of 2.27 L/kg and a logD [2] of 1.73.
